Source: patent US20240226053A9, “Compositions for ophthalmic care” (ReBio Technologies Oy, priority 2021, published 2024)

Legend:
[1] = Hydrolysis of latanoprost to latanoprost acid in porcine vitreous; format: in vitro ADME
Procedure: Porcine vitreous was mixed with Hanks' balanced salt solution containing 50 mM Hepes (HBSS-buffer, pH 7.4) at and vitreous mix (200 μl) was pipetted to 96-well plates. The plates were incubated at +37° C. and 5% CO2 with mild shaking for one hour to equilibrate the pH of vitreous into neutral range (pH 7.3-7.5). After incubation, 50 μl of 50 μg/mL latanoprost was added to plates and mixed. The final vitreous/buffer ratio was 1:1 and latanoprost concentration 10 μg/mL Latanoprost was incubated in vitreous at +37° C. and 5% CO2 with mild shaking and samples were collected at time points (0, 1, 2, 4, 6, 24, 29, 48 hours). At each time point the 150 μl of the sample was mixed by vortexing with the 150 μl acetonitrile. The samples were stored at −20° C. until HPLC analysis.
(§1) Hydrolysis of latanoprost was evaluated in buffer and in vitreous with pH adjusted to 7.4.
First hydrolysis of latanoprost was evaluated in buffer and in vitreous with pH adjusted to 7.4 and non pH adjusted.

[2] = Chemical stability of latanoprost in HBSS-buffer; format: physicochemical; settings: HBSS-buffer pH 7.4, +37° C., 48 h
Procedure: Chemical stability of latanoprost was studied simultaneously in HBSS-buffer, pH 7.4, using the same protocol but replacing the vitreous with the buffer.
as §1

[3] = Drug release from implant in porcine vitreous vs. PBS; settings: 35.5° C., 35% PLGA9010/60% DMSO/4% b-HPCD, 180 μg latanoprost
Procedure: These tests were carried out to ensure that the latanoprost released from the implant would go through hydrolysis to latanoprost acid, which is the active form of the molecule. Purpose of this study was also study the conversion rate of latanoprost to latanoprost acid. In addition, the release of latanoprost from ReBio test formulations was evaluated in vitreous vs. in PBS.
Next the drug release from implant was also tested in porcine vitreous vs. PBS(=phosphate buffered saline).
Formulation composition in this example was 35% PLGA9010/60% DMSO/4% b-HPCD—180 μg Latanoprost.

[4] = Solubility of regorafenib in water and PBS; format: physicochemical
Procedure: Solubility of regorafenib in water and PBS is negligible. Thus, Tween80 was added in PBS to increase solubility in the dissolution media. Regorafenib in vitro release studies from PGLA/DMSO ISFI were carried out in sink conditions, 2-5 ml PBS pH 7.2 (+Tween80 0.05%) in plastic and glass vessels at 35.5° C. (estimated at 10 mm depth in eye) and 60 rpm, orbit 61 mm in dark.

rat eyes = assay: Tolerability of intravitreally injected DMSO in rat eyes; format: in vivo; settings: intravitreal, 3 μl, 60%, 1/10 and 1/100 dilution, monitored two weeks
Procedure: In order to test the tolerability of DMSO in eye, DMSO (USP, Ph. Eur.) was injected to the rat eyes intravitreally using 34 G needle The injected volume was 3 μl and three concentrations were injected; 60%, 1/10 dilution, 1/100 dilution. Used Ph. Eur. grade DMSO was 0.2 μm Filter sterilized in Class 5 isolator before the injection.
The rats were monitored for two weeks using the following endpoints: • fundus imaging, including blood vessels • cloudiness and other symptoms in the anterior part of the eye • optic nerve head • state of the vasculature in the posterior eye segment (FAG) • ERG • intraocular pressure • retinal thickness with OCT • histology (in the end)

CC(C)OC(=O)CCC/C=C\C[C@@H]1[C@@H](CC[C@@H](O)CCc2ccccc2)[C@H](O)C[C@@H]1O [latanoprost, Latanoprost]
amount of latanoprost acid in vitreous over time ([1]; porcine vitreous, 48 h experiment): steadily increased
rate constant of latanoprost acid formation in vitreous (zero-order kinetics) ([1]; porcine vitreous/HBSS buffer 1:1, pH adjusted to 7.4, +37° C., latanoprost 10 μg/mL, 48 h): 0.111 µg/h
latanoprost acid formation in mere buffer [2]: No latanoprost acid was formed
conversion of released latanoprost to acid form in PBS [3]: did not change to its acid form

CNC(=O)c1cc(Oc2ccc(NC(=O)Nc3ccc(Cl)c(C(F)(F)F)c3)c(F)c2)ccn1 [regorafenib, Regorafenib]
solubility in water and PBS [4]: negligible

C[S+](C)[O-] [DMSO, dimethylsulfoxide]
adverse effects in eye (rat eyes): No adverse effect
